Measured values from US20250367170A1, “TOPICAL ANGIOTENSIN II RECEPTOR BLOCKERS (ARBS) FOR TREATING EYE CONDITIONS” (The Cleveland Clinic Foundation, priority 2022, published 2025).

Key:
collagen type IV = assay: IHC collagen type IV intensity in posterior stroma (ImageJ) after Descemetorhexis; format: in vivo, New Zealand White rabbits; conditions: one month
Method: Duplex immunohistochemistry (IHC) was performed after masking of slides by a researcher not involved in the analysis using previously described methods (de Oliveira et al., 2021) using primary antibodies (Table 2) confirmed by western blotting and IHC to recognize rabbit antigens or isotypic control antibodies (ThermoFisher Scientific, Waltham, MA), and secondary fluorescent tagged antibodies (Table 3).
The AB769 (Millipore, Temecula CA) collagen type IV antibody used in this study was generated against purified human and bovine collagen type IV, affinity purified with human and bovine collagen type IV crosslinked to agarose and cross-absorbed by the manufacturer with human and bovine collagens type I, II, III, V and VI to eliminate cross-reactivity. This antibody was shown previously to bind rabbit collagen IV in IHC (Sampaio et al., in press). […]
Collagen type IV intensity in immunohistochemistry images was quantitated in 0.75 W×0.5H rectangles of posterior stroma tangent to the posterior corneal surface using ImageJ on 7.62 cm wide×5.69 cm height and 300 DPI images generated using standardized microscopic illumination settings applied to all sections. The quantitation rectangles were positioned such that the posterior side of the rectangle was tangent to the posterior corneal surface just anterior to Descemet's membrane, if one was present, in the analysed specimens. […]

[1] = test system: rabbit corneas after 1N NaOH alkali burn injury; assay: Slit lamp stromal opacity area and intensity (ImageJ) one month after alkali burn; format: in vivo, New Zealand White rabbits; conditions: topical 0.2 mg/ml losartan and/or 1% prednisolone acetate six times per day
Method: All animal treatments and care were approved by the Institutional Animal Care and Use Committee (IACUC) at the Cleveland Clinic Foundation (Cleveland, OH, USA) and the Animal Care and Use Review Office of the Department of the Army (Fort Detrick, MD). All rabbits were treated in accordance with the tenets of the ARVO Statement for the Use of Animals in Ophthalmic and Vision Research. Sixteen 10- to 15-week-old female New Zealand White rabbits weighing 2.5 to 3.0 kg each were included in this example.
Alkali injuries were produced in one eye of rabbits with previously published methods^10 using 1N sodium hydroxide (Sigma, St. Louis, MO) in balanced salt solution (BSS, 0.64% sodium chloride, 0.075% potassium chloride, 0.048% calcium chloride dihydrate, 0.03% magnesium chloride hexahydrate, 0.39% sodium acetate trihydrate, 0.17% sodium citrate dihydrate, pH 7.5, Alcon, Ft. Worth, TX) and a 5 mm diameter circular Whatman No. 1 filter paper (Cat #1001-6508, Fisher Scientific) wetted with 100 μl of 1N NaOH solution. Following the alkali burn injury, the cornea was irrigated profusely with BSS. Each injured cornea also received one drop of ciprofloxacin (Alcon, Ft. Worth, TX, USA) ten minutes after surgery and four times a day for one week and at least 15 minutes apart from the study medications.
Worth TX), at least 5 minutes apart, or 4) 50 μl of BSS.
At one month after sodium hydroxide exposure and treatments, with the rabbits under ketamine-xylazine general anesthesia, the eyes were dilated with two drops of 1% tropicamide (Akom Co., Lake Forest, IL) for thirty minutes. The study eye in each rabbit had slit lamp photographs with standardized illumination level and angle of illumination at 20× magnification with a Topcon (Oakland, NJ, USA) SL-D7 slit lamp photography system. For each study eye, the total area of opacity was determined by outlining the opacity with the freehand selection tool using ImageJ 1.53a analysis software calibrated to mm^2. The “raw internal density” in pixels for the opacified area in each cornea was also determined using ImageJ.

[2] = test system: rabbit corneas after -9D PRK; assay: Slit lamp central opacity (ImageJ) one month after -9D PRK; format: in vivo, New Zealand white rabbits; conditions: topical 0.2 mg/ml six times a day, vehicle 93±6
Method: Animal procedures were approved by the Institutional Animal Care and Use Committee at the Cleveland Clinic Foundation and animals were treated in accordance with the tenets of the Association for Research in Vision and Ophthalmology Statement for the Use of Animals in Ophthalmic and Vision Research. Twelve female 12- to 15-week-old New Zealand white rabbits weighing 2.5 to 3 kg each were included. Starting 24 hours prior to surgery and continuing 5 days after PRK, all rabbits received 60 mL children's liquid acetaminophen (Johnson & Johnson, Ft. Washington, PA, USA) per 1 L of drinking water. One eye of each rabbit was randomly selected to have −9.0 D (on myopia scale) PRK and received 2 drops of topical 1% proparacaine hydrochloride (Alcon, Fort Worth, TX, USA) prior to the surgery. […]
At 1 month after PRK and treatment, each rabbit was placed under ketamine-xylazine general anesthesia and the eyes were dilated with two drops of 1% tropicamide (Akorn Co., Lake Forest, IL, USA) for 30 minutes. […] For each study cornea, the mean opacity in pixels in the central 3.5 mm of the PRK ablated zone was determined by using ImageJ 1.53a analysis software (National Institutes of Health, Bethesda, MD, USA).

CCCCc1nc(Cl)c(CO)n1Cc1ccc(-c2ccccc2-c2nn[nH]n2)cc1 [losartan]
posterior stromal collagen type IV production vs topical and oral vehicle (collagen type IV; topical and oral losartan): significantly decreased
posterior stromal collagen type IV production vs topical and oral vehicle (collagen type IV; topical losartan): significantly decreased
total corneal opacity area measured with ImageJ, vs BSS vehicle [1]: decreased
total opacity in pixels in the opacified area of cornea, vs vehicle BSS group [1]: significantly lower
mean pixels of opacity within the central 3.5 mm diameter area (mean±SEM) [2]: 77±3 pixels
